PubChem BioAssay (NCI)
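Growth conditions: 96-well plates. Treatment: test compound, 48 hours, 5 concentrations. Analysis: linear interpolation between bracketing concentrations; unreached endpoints set to highest concentration. Abbreviation: GI50, concentration required for 50% inhibition of growth. TGI is the concentration that stops growth completely.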

Tests used:
Experiment in all cases: NCI-60 cell line screen, 48 h
SK-OV-3 ovarian = test system: SK-OV-3 ovarian
NCI-H226 lung = test system: NCI-H226 lung
HL-60(TB) leukemia = test system: HL-60(TB) leukemia
SK-MEL-5 melanoma = test system: SK-MEL-5 melanoma
A498 renal = test system: A498 renal
OVCAR-5 ovarian = test system: OVCAR-5 ovarian
SK-MEL-28 melanoma = test system: SK-MEL-28 melanoma
RXF 393 renal = test system: RXF 393 renal
HS 578T breast = test system: HS 578T breast
SF-268 CNS = test system: SF-268 CNS
ACHN renal = test system: ACHN renal
MDA-MB-231 breast = test system: MDA-MB-231 breast
LOX IMVI melanoma = test system: LOX IMVI melanoma
PC-3 prostate = test system: PC-3 prostate
UACC-257 melanoma = test system: UACC-257 melanoma
SNB-19 CNS = test system: SNB-19 CNS
HOP-92 NSCLC = test system: HOP-92 NSCLC
HCT-15 colon = test system: HCT-15 colon
NCI-H23 lung = test system: NCI-H23 lung
U251 CNS = test system: U251 CNS
786-0 renal = test system: 786-0 renal
NCI/ADR-RES ovarian = test system: NCI/ADR-RES ovarian
HCC-2998 colon = test system: HCC-2998 colon
OVCAR-3 ovarian = test system: OVCAR-3 ovarian
UO-31 renal = test system: UO-31 renal
K-562 leukemia = test system: K-562 leukemia
DU-145 prostate = test system: DU-145 prostate
SNB-75 CNS = test system: SNB-75 CNS
SN12C renal = test system: SN12C renal
MDA-MB-435 = test system: MDA-MB-435
NCI-H460 lung = test system: NCI-H460 lung
COLO 205 colon = test system: COLO 205 colon
IGROV1 ovarian = test system: IGROV1 ovarian
RPMI-8226 leukemia = test system: RPMI-8226 leukemia
SF-295 CNS = test system: SF-295 CNS
MOLT-4 leukemia = test system: MOLT-4 leukemia
OVCAR-8 ovarian = test system: OVCAR-8 ovarian
HCT-116 colon = test system: HCT-116 colon
UACC-62 melanoma = test system: UACC-62 melanoma
HOP-62 NSCLC = test system: HOP-62 NSCLC
SW-620 colon = test system: SW-620 colon
T-47D breast = test system: T-47D breast
M14 melanoma = test system: M14 melanoma
MCF7 breast = test system: MCF7 breast
EKVX NSCLC = test system: EKVX NSCLC
SR leukemia = test system: SR leukemia
MALME-3M melanoma = test system: MALME-3M melanoma
A549 NSCLC = test system: A549 NSCLC
OVCAR-4 ovarian = test system: OVCAR-4 ovarian
SF-539 CNS = test system: SF-539 CNS
CCRF-CEM leukemia = test system: CCRF-CEM leukemia
KM12 colon = test system: KM12 colon
CAKI-1 renal = test system: CAKI-1 renal
NCI-H522 lung = test system: NCI-H522 lung
TK-10 renal = test system: TK-10 renal

## N=C(N)c1ccc(-c2ccc(/C=C/c3ccccc3)s2)cc1
SK-OV-3 ovarian
  GI50: 2.07 µM
  TGI: 4.9 µM
NCI-H226 lung
  GI50: 6.82 µM
  TGI: 46 µM
HL-60(TB) leukemia
  GI50: 2.17 µM
  TGI: 4.67 µM
SK-MEL-5 melanoma
  GI50: 2.6 µM
  TGI: 7.12 µM
A498 renal
  GI50: 11.9 µM
  TGI: 34.1 µM
OVCAR-5 ovarian
  GI50: 1.47 µM
  TGI: 2.87 µM
SK-MEL-28 melanoma
  GI50: 1.65 µM
  TGI: 3.07 µM
RXF 393 renal
  GI50: 1.65 µM
  TGI: 3.13 µM
HS 578T breast
  GI50: 2.58 µM
  TGI: 7.32 µM
SF-268 CNS
  GI50: 4.28 µM
  TGI: 39.7 µM
ACHN renal
  GI50: 1.67 µM
  TGI: 3.03 µM

## CCN1CCC(Nc2ccnc3cc(Cl)ccc23)CC1
SK-OV-3 ovarian
  GI50: > 100 µM
  TGI: > 100 µM
MDA-MB-231 breast
  GI50: 19.7 µM
  TGI: > 100 µM
LOX IMVI melanoma
  GI50: 26.1 µM
  TGI: > 100 µM
NCI-H226 lung
  GI50: 39.1 µM
  TGI: > 100 µM
PC-3 prostate
  GI50: 24.9 µM
  TGI: > 100 µM
UACC-257 melanoma
  GI50: 17 µM
  TGI: 32.3 µM
SNB-19 CNS
  GI50: 79.1 µM
  TGI: > 100 µM
HOP-92 NSCLC
  GI50: 45.3 µM
  TGI: > 100 µM
HCT-15 colon
  GI50: 30.1 µM
  TGI: > 100 µM
NCI-H23 lung
  GI50: 74.1 µM
  TGI: > 100 µM
SK-MEL-5 melanoma
  GI50: 16 µM
  TGI: 30.2 µM
U251 CNS
  GI50: 30.5 µM
  TGI: > 100 µM
786-0 renal
  GI50: 32.4 µM
  TGI: > 100 µM
A498 renal
  GI50: 74.6 µM
  TGI: > 100 µM
OVCAR-5 ovarian
  GI50: 34.2 µM
  TGI: > 100 µM
SK-MEL-28 melanoma
  GI50: 18.1 µM
  TGI: 33.5 µM
NCI/ADR-RES ovarian
  GI50: 44.8 µM
  TGI: > 100 µM
RXF 393 renal
  GI50: 32.9 µM
  TGI: > 100 µM
HCC-2998 colon
  GI50: 33.3 µM
  TGI: > 100 µM
OVCAR-3 ovarian
  GI50: 24.8 µM
  TGI: > 100 µM
UO-31 renal
  GI50: 9.06 µM
  TGI: 29 µM
K-562 leukemia
  GI50: 4.83 µM
  TGI: > 100 µM
DU-145 prostate
  GI50: 36.5 µM
  TGI: > 100 µM
SNB-75 CNS
  GI50: 18.4 µM
  TGI: 74.8 µM
HS 578T breast
  GI50: 17.1 µM
  TGI: 48.9 µM
SN12C renal
  GI50: 91.9 µM
  TGI: > 100 µM
SF-268 CNS
  GI50: 23.6 µM
  TGI: > 100 µM
MDA-MB-435
  GI50: 17.8 µM
  TGI: 55.5 µM
NCI-H460 lung
  GI50: 28.7 µM
  TGI: > 100 µM
COLO 205 colon
  GI50: 12.5 µM
  TGI: 27.1 µM
IGROV1 ovarian
  GI50: 11.7 µM
  TGI: > 100 µM
RPMI-8226 leukemia
  GI50: 25.9 µM
  TGI: 78.3 µM
SF-295 CNS
  GI50: 18 µM
  TGI: 53.6 µM
MOLT-4 leukemia
  GI50: 18.5 µM
  TGI: > 100 µM
OVCAR-8 ovarian
  GI50: 34.8 µM
  TGI: > 100 µM
HCT-116 colon
  GI50: 8.82 µM
  TGI: > 100 µM
UACC-62 melanoma
  GI50: 19.2 µM
  TGI: 39.2 µM
HOP-62 NSCLC
  GI50: 21.9 µM
  TGI: > 100 µM
ACHN renal
  GI50: 33.9 µM
  TGI: > 100 µM
SW-620 colon
  GI50: 21.8 µM
  TGI: > 100 µM
T-47D breast
  GI50: 31.3 µM
  TGI: > 100 µM
M14 melanoma
  GI50: 14.4 µM
  TGI: 29.3 µM
MCF7 breast
  GI50: 28.2 µM
  TGI: > 100 µM
EKVX NSCLC
  GI50: 35.2 µM
  TGI: > 100 µM
SR leukemia
  GI50: 3.44 µM
  TGI: 28.2 µM
MALME-3M melanoma
  GI50: 20.7 µM
  TGI: 40.4 µM
A549 NSCLC
  GI50: 33.9 µM
  TGI: > 100 µM
OVCAR-4 ovarian
  GI50: 55.7 µM
  TGI: > 100 µM
SF-539 CNS
  GI50: 15.8 µM
  TGI: 36 µM
CCRF-CEM leukemia
  GI50: 36.9 µM
  TGI: > 100 µM
KM12 colon
  GI50: 25.2 µM
  TGI: > 100 µM
CAKI-1 renal
  GI50: 21.5 µM
  TGI: > 100 µM

## CCCc1cn2c(/C=N/N=C(N)N)c(-c3cccc([N+](=O)[O-])c3)nc2s1
SK-OV-3 ovarian
  TGI: 5.3 µM
MDA-MB-231 breast
  TGI: 3.04 µM
NCI-H226 lung
  TGI: 3.28 µM
PC-3 prostate
  TGI: 8.19 µM
HL-60(TB) leukemia
  TGI: 4.75 µM
SNB-19 CNS
  TGI: 4.86 µM
HOP-92 NSCLC
  TGI: 32.4 µM
NCI-H522 lung
  TGI: 4.47 µM
SK-MEL-5 melanoma
  TGI: 3.9 µM
A498 renal
  TGI: 33.2 µM
SK-MEL-28 melanoma
  TGI: 3.18 µM
NCI/ADR-RES ovarian
  TGI: 10.5 µM
SNB-75 CNS
  TGI: 3.1 µM
HS 578T breast
  TGI: 7.51 µM
SN12C renal
  TGI: 2.58 µM
MDA-MB-435
  TGI: 3.46 µM
NCI-H460 lung
  TGI: 5.37 µM
COLO 205 colon
  TGI: 4.35 µM
RPMI-8226 leukemia
  TGI: 4.36 µM
MOLT-4 leukemia
  TGI: 2.81 µM
UACC-62 melanoma
  TGI: 3.15 µM
ACHN renal
  TGI: 3.38 µM
TK-10 renal
  TGI: 0.405 µM
SW-620 colon
  TGI: 8.42 µM
T-47D breast
  TGI: 4.99 µM
SR leukemia
  TGI: 3.89 µM
MALME-3M melanoma
  TGI: 2.82 µM
SF-539 CNS
  TGI: 3.15 µM
CCRF-CEM leukemia
  TGI: 2.32 µM
KM12 colon
  TGI: 3.57 µM
CAKI-1 renal
  TGI: 3.83 µM
